The record followed here is patent US20200196637A1, “COMPOSITION FOR PREVENTION OR TREATMENT OF MILD COGNITIVE […] […] […] AS ACTIVE INGREDIENT” (priority 2016, published 2020).

In the assay the test system is APOE-gene deficient mice (BALB/c.KOR/StmSlc-Apoe^shl). Kind of assay: Y maze test of spacial working memory. As to conditions: intake from age of 8 weeks, examined 250 days later (10-month old). Type of assay: in vivo.

Method: The wild type mice used were BALB/cCrSlc and the APOE-gene deficient mice used were BALB/c.KOR/StmSlc-Apoe^shl.
The cognitive function was measured by the Y maze test (Conrad C D. et al., Brain Res. 1997; 759:76-83). Its principle is as follows. Animals placed in the center of 3 arms in the Y-shape start exploratory behavior after a while. Normal animals rarely return to the arm once explored and explore different arms in turn with the help of marks seen out of the maze. However, model animals with declined space recognition and/or memory go to the same place many times and enter the arm that the animal entered the last time again. In the Y maze test, the order of the arms that an animal entered during a certain period of time is measured and the percentage of the number of times (percent alternation) when the mouse entered all different arms in a consecutive raw of three times as an indicator of space recognition and memory.
Powder feed containing 0.1 g of MgH2 in 1 kg of MF powder feed (a product manufactured by Oriental Yeast Co., ltd.) was produced and the animals were allowed to take the feed freely. […] The control feed was feed containing 0.22 g of Mg(OH)2 per 1 kg of MF powder feed. The feed was changed with fresh feed five times a week.
The control mice were placed for 1 hour in a chamber containing the air five times a week.

In the case of `[H-].[H-].[Mg+2]` [MgH2, magnesium hydride], the “spacial working memory (percent alternation, Y maze, FIG. 4)” value is listed as “the decline of spacial working memory was decreased”.

Consider `[HH]` [hydrogen gas], for which the “spacial working memory (percent alternation, Y maze, FIG. 4)” value is reported as “the decline of spacial working memory was decreased”.
